Measured values: US4563461A, “Selective method for blocking 5HT2 receptors” (Eli Lilly and Company, priority 1983, dated 1986)
Where two headings read alike, the source gives them in different places.

Tests used:
[1] = biological target: T1, 5HT2 receptors (Rattus norvegicus, UniProt P14842); experiment: Antagonism of serotonin contraction in isolated rat jugular vein (apparent dissociation constant); assay type: cell-based; conditions: for Ratio KB alpha / KB 5HT2: rat aorta KB over rat jugular vein KB; for Kb: rat jugular vein, agonist serotonin, antagonist incubated one hour, n in parentheses, read-out: 5HT2 -Log KB ± S.E. (converted)
T1 construct: their external jugular veins and thoracic aortas dissected free of connective tissue; from tissue; host or cells: external jugular vein of male Wistar rats
T1 sequence (P14842 whole entry): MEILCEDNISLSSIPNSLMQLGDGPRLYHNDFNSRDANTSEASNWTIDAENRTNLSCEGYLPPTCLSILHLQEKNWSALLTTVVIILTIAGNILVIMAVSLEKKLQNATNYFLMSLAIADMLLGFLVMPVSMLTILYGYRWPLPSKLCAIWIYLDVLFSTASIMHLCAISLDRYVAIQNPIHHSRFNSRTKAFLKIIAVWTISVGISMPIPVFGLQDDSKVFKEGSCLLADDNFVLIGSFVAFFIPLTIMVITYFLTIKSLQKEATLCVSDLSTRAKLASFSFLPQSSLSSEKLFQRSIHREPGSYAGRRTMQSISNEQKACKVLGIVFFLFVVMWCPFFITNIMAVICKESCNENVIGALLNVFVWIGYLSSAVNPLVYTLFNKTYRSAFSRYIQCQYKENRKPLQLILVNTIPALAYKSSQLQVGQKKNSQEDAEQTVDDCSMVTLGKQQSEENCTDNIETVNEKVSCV
Description: (§1) The apparent dissociation constants (KB) are a measure of affinity for 5HT2 and alpha receptors and are expressed as the negative logarithm and are determined according to the following protocol.
(§2) Male Wistar rats (150-300 gram weight) were killed and their external jugular veins and thoracic aortas dissected free of connective tissue, cannulated in situ and placed in a modified Krebs' bicarbonate buffer in a suitable tissue bath. Two L-shaped 30-gauge stainless-steel hypodermic needles were inserted in each cannula and the dissected vessels gently pushed onto the needles. One needle was attached with thread to a stationary glass rod and the other to the transducer. [The procedure employed was that described by Hooker, Calkins and Fleisch, Blood Vessels, 14, 1, (1977) for use with circular smooth muscle preparations.]
(§3) The modified Krebs' bicarbonate buffer had the following makeup: (concentrations in millimoles): sodium chloride, 118.2; potassium chloride, 4.6; calcium chloride dihydrate, 1.6; potassium dihydrogenphosphate, 1.2; magnesium sulfate, 1.2; dextrose, 10.0; sodium bicarbonate, 24.8; and water q.s. to 1000 g. The tissue baths were maintained at 37° C. and were aerated with 95% oxygen-5% CO2. An initial optimum resting force of 1 and 4 g. was applied to the jugular vein and aorta, respectively. Isometric contractions were recorded as changes in grams of force on a Beckman Dynograph with Statham UC-3 transducers and microscale accessory attachment. Tissues were allowed to equilibrate 1 to 2 hours before exposure to drugs. Control responses to serotonin in the jugular vein and to norepinephrine in the aorta were obtained. The vessels were then incubated with appropriate concentrations of antagonist for one hour. Responses to serotonin or to norepinephrine were then repeated in the presence of the antagonist. Contraction to serotonin was evaluated in the jugular vein since this tissue produces marked responses to serotonin in the absence of alpha receptors--see Cohen and Wiley, J. Pharm. Exp. Ther., 205, 400 (1978). Alpha receptor antagonist activity was evaluated in the aorta.
(§4) Apparent antagonist dissociation constants were determined for each concentration of antagonist according to the following equation: [formula] wherein [B] is the concentration of the antagonist and the dose ratio is the ED50 of the agonist in the presence of the antagonist divided by the control ED50.

[2] = biological target: T2, alpha receptors (Rattus norvegicus, UniProt P23944); experiment: Antagonism of norepinephrine contraction in isolated rat aorta (apparent dissociation constant, dose ratio); assay type: cell-based; conditions: for Dose-Ratio (norepinephrine ED50 with test compound / control ED50): 10^-5 molar test compound
T2 construct: their external jugular veins and thoracic aortas dissected free of connective tissue; from tissue; host or cells: thoracic aorta of male Wistar rats
T2 sequence (P23944 1-561): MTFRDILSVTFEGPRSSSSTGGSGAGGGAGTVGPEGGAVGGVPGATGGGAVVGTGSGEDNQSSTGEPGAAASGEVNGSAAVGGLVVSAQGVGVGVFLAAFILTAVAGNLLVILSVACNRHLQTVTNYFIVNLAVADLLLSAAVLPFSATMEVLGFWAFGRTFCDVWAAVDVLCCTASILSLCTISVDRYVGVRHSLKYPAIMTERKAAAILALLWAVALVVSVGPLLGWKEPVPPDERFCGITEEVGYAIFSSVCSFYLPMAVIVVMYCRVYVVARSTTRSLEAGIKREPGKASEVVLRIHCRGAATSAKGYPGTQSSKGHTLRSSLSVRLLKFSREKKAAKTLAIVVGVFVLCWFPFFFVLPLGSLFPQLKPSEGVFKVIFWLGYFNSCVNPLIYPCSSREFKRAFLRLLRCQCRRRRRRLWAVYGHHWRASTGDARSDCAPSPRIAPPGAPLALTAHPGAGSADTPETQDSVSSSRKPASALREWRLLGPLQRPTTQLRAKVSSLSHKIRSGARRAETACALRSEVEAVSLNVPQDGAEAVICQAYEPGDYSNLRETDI
Description: as §1, §2, §3, §4
The in vitro rat aorta preparation described above was used.

[3] = Blood pressure in spontaneously hypertensive rats (SHR); assay type: in vivo, rat; conditions: intraperitoneal, 10 mg./kg.
Description: In spontaneously hypertensive rats (SHR), in which blockade of alpha receptors but not 5HT2 receptors lowers blood pressure, there was no effect upon intraperitoneal administration of 1-isopropyl-6-methyl-8β-(1-methyl-2-hydroxy)propoxycarbonyl-5R-ergoline at a 10 mg./kg. dose.

[4] = biological target: T1, 5HT2 receptors; assay type: in vivo; conditions: pithed SHR, i.p.
Description: SHR were anesthesized with halothane, femoral arterial and venous catheters implanted as before and the trachea cannulated. Each rat was pithed by passing a steel rod through the right orbit and down the entire length of the spinal column. The steel rod remained in place for the duration of the experiment. Immediately after pithing, the rats were ventilated with room air via a rodent respirator which eliminated any anesthetic effects. […] The response was recorded and the blood pressure allowed to recover to control levels. […] The test drug was prepared fresh daily and administered by the intraperitoneal route.

[5] = test system: alpha receptors; experiment: Shift of methoxamine pressor response in pithed SHR; assay type: in vivo, rat; conditions: i.p., 10 mg./kg.
Description: SHR were anesthesized with halothane, femoral arterial and venous catheters implanted as before and the trachea cannulated. Each rat was pithed by passing a steel rod through the right orbit and down the entire length of the spinal column. The steel rod remained in place for the duration of the experiment. Immediately after pithing, the rats were ventilated with room air via a rodent respirator which eliminated any anesthetic effects. An equilibration period of 15 minutes was observed prior to control measurements and administration of drugs or vehicle i.p. Increasing doses of serotonin or methoxamine were injected i.v. 15 minutes after the equilibration period. The response was recorded and the blood pressure allowed to recover to control levels. […] The test drug was prepared fresh daily and administered by the intraperitoneal route. The compound shifted the serotonin response 22 and 480 fold at 0.1 and 3 mg./kg. dosages whereas at a 10 mg./kg. dose there was no shift in the response to methoxamine, an alpha agonist.

[6] = rat aorta, agonist norepinephrine, antagonist incubated one hour, n in parentheses, read-out: alpha -Log KB ± S.E. (converted)

SMILES	Ratio KB alpha / KB 5HT2 [1]	Kb [1] [nM]	Kb [2] [nM]	Dose-Ratio (norepinephrine ED50 with test compound / control ED50) ([2]; rat aorta)	also measured
CNCC12CCC(c3ccccc31)c1ccccc12 [Benzoctamine]	16	15.8	251		
Cc1cc(CCN2CCN(c3cccc(Cl)c3)CC2)n[nH]1 [Mepiprazole]	0.4	12.6			Kb [2, 6]: 5.01 nM
O=C(c1ccc(F)cc1)C1CCN(CCn2c(=O)[nH]c3ccccc3c2=O)CC1 [Ketanserin, reference compound]					Kb [2, 6]: 12.6 nM
O=c1n(CCCN2CCN(c3cccc(Cl)c3)CC2)nc2ccccn12 [Trazodone, reference compound]			158		
CC(O)COC(=O)[C@@H]1C[C@@H]2c3cccc4c3c(cn4C(C)C)C[C@H]2N(C)C1 (stereo partly drawn) [1-isopropyl-6-methyl-8β-(2-hydroxy)propoxycarbonyl-5R-ergoline]				1.0	
C=CCn1cc2c3c(cccc31)[C@H]1C[C@@H](C(=O)OCCO)CN(C)[C@@H]1C2 [1-allyl-6-methyl-8β-(2-hydroxy)ethoxycarbonyl-5R-ergoline]				2.4	
CC(O)C(C)OC(=O)[C@@H]1C[C@@H]2c3cccc4c3c(cn4C(C)C)C[C@H]2N(C)C1 (stereo partly drawn) [1-isopropyl-6-methyl-8β-(1-methyl-2-hydroxy)propoxycarbonyl-5R-ergoline]	300,000	0.0537	13800	3.6	Effect on blood pressure [3]: no effect; Shift of the serotonin response ([4]; 0.1 mg./kg.): 22 fold; Shift of the serotonin response ([4]; 3 mg./kg.): 480 fold; Shift in the response to methoxamine [5]: no shift
